PubChem BioAssay (NCI)
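Assay format: 96-well plates, 48-hour exposure. Abbreviation: GI50, concentration required for 50% inhibition of growth. TGI marks complete inhibition of growth.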

Columns and labels:
Assay in all cases: growth of human tumour cells (NCI), 48 h
LOX IMVI melanoma = test system: LOX IMVI melanoma
CCRF-CEM leukemia = test system: CCRF-CEM leukemia
HCT-116 colon = test system: HCT-116 colon
SK-MEL-28 melanoma = test system: SK-MEL-28 melanoma
NCI-H23 lung = test system: NCI-H23 lung
HOP-92 NSCLC = test system: HOP-92 NSCLC
NCI-H226 lung = test system: NCI-H226 lung
SF-539 CNS = test system: SF-539 CNS
UACC-257 melanoma = test system: UACC-257 melanoma
PC-3 prostate = test system: PC-3 prostate

## Cc1cccc(Cc2cnc(NC(=O)CCc3ccc(C)o3)s2)c1
LOX IMVI melanoma
  GI50: 0.518 µM
  TGI: > 100 µM
CCRF-CEM leukemia
  GI50: 0.234 µM
  TGI: > 100 µM
HCT-116 colon
  GI50: 0.242 µM
  TGI: > 100 µM
SK-MEL-28 melanoma
  GI50: 2.06 µM
  TGI: > 100 µM
NCI-H23 lung
  GI50: 0.593 µM
  TGI: > 100 µM
HOP-92 NSCLC
  GI50: 7.31 µM
  TGI: 98.7 µM
NCI-H226 lung
  GI50: 8.69 µM
  TGI: > 100 µM
SF-539 CNS
  GI50: 0.202 µM
  TGI: 0.642 µM
UACC-257 melanoma
  GI50: 15.4 µM
  TGI: > 100 µM
PC-3 prostate
  GI50: 0.336 µM
  TGI: > 100 µM

## COc1cc(-c2csc(NC(=O)Nc3cc(Cl)cc(Cl)c3)n2)cc(OC)c1OC
LOX IMVI melanoma
  GI50: 1.93 µM
  TGI: 3.96 µM
CCRF-CEM leukemia
  GI50: 3.41 µM
  TGI: > 100 µM
HCT-116 colon
  GI50: 1.6 µM
  TGI: 2.97 µM
SK-MEL-28 melanoma
  GI50: 2.17 µM
  TGI: 5.43 µM
NCI-H23 lung
  GI50: 1.94 µM
  TGI: 4.5 µM
HOP-92 NSCLC
  GI50: 1.7 µM
  TGI: 3.73 µM
NCI-H226 lung
  GI50: 1.96 µM
  TGI: 4.38 µM
SF-539 CNS
  GI50: 1.99 µM
  TGI: 4.7 µM
UACC-257 melanoma
  GI50: 2.98 µM
  TGI: 8.81 µM
PC-3 prostate
  GI50: 1.59 µM
  TGI: 3.61 µM

## CC#Cc1nc(Nc2cc(C)[nH]n2)c2ccccc2n1
LOX IMVI melanoma
  GI50: 2.07 µM
  TGI: 4.4 µM
CCRF-CEM leukemia
  GI50: 4.6 µM
  TGI: > 100 µM
HCT-116 colon
  GI50: 3.66 µM
  TGI: 39.4 µM
SK-MEL-28 melanoma
  GI50: 7.76 µM
  TGI: > 100 µM
NCI-H23 lung
  GI50: 5.27 µM
  TGI: 41.6 µM
HOP-92 NSCLC
  GI50: 3.55 µM
  TGI: 21.1 µM
NCI-H226 lung
  GI50: 2.21 µM
  TGI: 11.1 µM
SF-539 CNS
  GI50: 3.81 µM
  TGI: 17.6 µM
UACC-257 melanoma
  GI50: 5.52 µM
  TGI: 20.9 µM
PC-3 prostate
  GI50: 5.22 µM
  TGI: 21.6 µM

## Cc1c([N+](=O)[O-])oc2ccc3ccccc3c12
LOX IMVI melanoma
  TGI: > 100 µM
CCRF-CEM leukemia
  TGI: > 100 µM
HCT-116 colon
  TGI: 34.2 µM
SK-MEL-28 melanoma
  TGI: > 100 µM
NCI-H23 lung
  TGI: > 100 µM
HOP-92 NSCLC
  TGI: > 100 µM
NCI-H226 lung
  TGI: > 100 µM
SF-539 CNS
  TGI: > 100 µM
UACC-257 melanoma
  TGI: > 100 µM
PC-3 prostate
  TGI: > 100 µM

## CCN(CC)C(=S)[S][Bi]([S]C(=S)N(CC)CC)[S]C(=S)N(CC)CC
LOX IMVI melanoma
  GI50: 0.261 µM
  TGI: 0.745 µM
CCRF-CEM leukemia
  GI50: 0.0193 µM
HCT-116 colon
  GI50: 0.0858 µM
  TGI: 0.247 µM
SK-MEL-28 melanoma
  GI50: 0.218 µM
  TGI: 0.492 µM
NCI-H23 lung
  GI50: 0.211 µM
  TGI: 0.582 µM
HOP-92 NSCLC
  GI50: 0.136 µM
  TGI: 0.276 µM
NCI-H226 lung
  GI50: 2.07 µM
  TGI: 4.18 µM
SF-539 CNS
  GI50: 0.195 µM
  TGI: 0.436 µM
UACC-257 melanoma
  GI50: 0.178 µM
  TGI: 0.384 µM
PC-3 prostate
  GI50: 0.263 µM
  TGI: 1.04 µM

## CCCCCCCCCCCCCCCCCC(=O)Nc1ccn(C2OC(CO)C(O)C2O)c(=O)n1 (centres undefined)
LOX IMVI melanoma
  TGI: 39.4 µM
CCRF-CEM leukemia
  TGI: 26.2 µM
HCT-116 colon
  TGI: > 100 µM
SK-MEL-28 melanoma
  TGI: > 100 µM
NCI-H23 lung
  TGI: 98.7 µM
HOP-92 NSCLC
  TGI: > 100 µM
NCI-H226 lung
  TGI: > 100 µM
SF-539 CNS
  TGI: > 100 µM
UACC-257 melanoma
  TGI: > 100 µM
PC-3 prostate
  TGI: > 100 µM

## CC(=C/c1ccccc1)/C=C1/NC(=S)N(/C=C2\C(=O)Oc3ccccc3C2=O)C1=O
LOX IMVI melanoma
  TGI: > 100 µM
CCRF-CEM leukemia
  TGI: > 100 µM
HCT-116 colon
  TGI: > 100 µM
SK-MEL-28 melanoma
  TGI: > 100 µM
NCI-H23 lung
  TGI: > 100 µM
HOP-92 NSCLC
  TGI: > 65 µM
NCI-H226 lung
  TGI: > 100 µM
SF-539 CNS
  TGI: > 100 µM
UACC-257 melanoma
  TGI: > 100 µM
PC-3 prostate
  TGI: > 100 µM

## CC(O)c1cc(C(=O)N[C@@H](C)Cn2ccc(-c3ccc(C#N)c(Cl)c3)n2)n[nH]1 (some centres undefined)
LOX IMVI melanoma
  GI50: 87.2 µM
  TGI: > 100 µM
CCRF-CEM leukemia
  GI50: 16.8 µM
  TGI: 39.9 µM
HCT-116 colon
  GI50: 45.7 µM
  TGI: > 100 µM
SK-MEL-28 melanoma
  GI50: 72.8 µM
  TGI: > 100 µM
NCI-H23 lung
  GI50: 76 µM
  TGI: > 100 µM
HOP-92 NSCLC
  GI50: 26.5 µM
  TGI: > 100 µM
NCI-H226 lung
  GI50: 58.5 µM
  TGI: > 100 µM
SF-539 CNS
  GI50: > 100 µM
  TGI: > 100 µM
UACC-257 melanoma
  GI50: 27.5 µM
  TGI: > 100 µM
PC-3 prostate
  GI50: 22.1 µM
  TGI: > 100 µM

## CC(=O)c1cc(O)c2ccccc2c1O
LOX IMVI melanoma
  GI50: 14.8 µM
  TGI: 39.3 µM
CCRF-CEM leukemia
  GI50: 19.2 µM
  TGI: > 100 µM
HCT-116 colon
  GI50: 17.6 µM
  TGI: 34.5 µM
SK-MEL-28 melanoma
  GI50: 22.9 µM
  TGI: 44.5 µM
NCI-H23 lung
  GI50: 20.2 µM
  TGI: 53.7 µM
HOP-92 NSCLC
  GI50: 16.6 µM
  TGI: 31 µM
NCI-H226 lung
  GI50: 17.5 µM
  TGI: 33.2 µM
SF-539 CNS
  GI50: 22.5 µM
  TGI: 40.6 µM
UACC-257 melanoma
  GI50: 17.7 µM
  TGI: 34.1 µM
PC-3 prostate
  GI50: 20.3 µM
  TGI: 50.8 µM

## Cc1cc(I)cc(CN(C)CCCN2CCN(C)CC2)c1O
LOX IMVI melanoma
  GI50: 17.2 µM
  TGI: 36.1 µM
CCRF-CEM leukemia
  GI50: 45.7 µM
  TGI: > 100 µM
HCT-116 colon
  GI50: 12.6 µM
  TGI: > 86.1 µM
SK-MEL-28 melanoma
  GI50: 17.2 µM
  TGI: 33 µM
NCI-H23 lung
  GI50: 82.4 µM
  TGI: > 100 µM
HOP-92 NSCLC
  GI50: 37.9 µM
  TGI: > 100 µM
NCI-H226 lung
  GI50: 56.9 µM
  TGI: > 100 µM
SF-539 CNS
  GI50: 16 µM
  TGI: 33 µM
UACC-257 melanoma
  GI50: 35 µM
  TGI: > 57.5 µM
PC-3 prostate
  GI50: 52.2 µM
  TGI: > 100 µM

## O=C(O)c1cc2ccccc2c2c1C(=O)c1ccccc1-2
LOX IMVI melanoma
  TGI: > 100 µM
CCRF-CEM leukemia
  TGI: > 100 µM
HCT-116 colon
  TGI: > 100 µM
SK-MEL-28 melanoma
  TGI: > 100 µM
NCI-H23 lung
  TGI: > 100 µM
HOP-92 NSCLC
  TGI: > 100 µM
NCI-H226 lung
  TGI: > 100 µM
SF-539 CNS
  TGI: > 100 µM
UACC-257 melanoma
  TGI: > 100 µM
PC-3 prostate
  TGI: > 100 µM

## CN(C)CCCn1c(-c2nonc2N)nc2cnccc21
LOX IMVI melanoma
  GI50: > 25 µM
  TGI: > 25 µM
CCRF-CEM leukemia
  GI50: > 25 µM
  TGI: > 25 µM
HCT-116 colon
  GI50: > 25 µM
  TGI: > 25 µM
SK-MEL-28 melanoma
  GI50: > 25 µM
  TGI: > 25 µM
NCI-H23 lung
  GI50: > 25 µM
  TGI: > 25 µM
HOP-92 NSCLC
  GI50: 1.96 µM
  TGI: > 25 µM
NCI-H226 lung
  GI50: > 4.99 µM
  TGI: > 25 µM
SF-539 CNS
  GI50: > 25 µM
  TGI: > 25 µM
UACC-257 melanoma
  GI50: > 25 µM
  TGI: > 25 µM
PC-3 prostate
  GI50: > 25 µM
  TGI: > 25 µM

## CC(C)=CCCC(C)C1=C(O)C(=O)C(C)=CC1=O (centres undefined)
LOX IMVI melanoma
  TGI: 15.1 µM
CCRF-CEM leukemia
  TGI: > 20.5 µM
HCT-116 colon
  TGI: 12.8 µM
SK-MEL-28 melanoma
  TGI: > 42.4 µM
NCI-H23 lung
  TGI: 34 µM
HOP-92 NSCLC
  TGI: 3.67 µM
NCI-H226 lung
  TGI: 47.5 µM
SF-539 CNS
  TGI: 41.9 µM
UACC-257 melanoma
  TGI: 26.1 µM
PC-3 prostate
  TGI: 33 µM

## Cc1ccc(Sc2cc3c(oc2=O)-c2ccccc2OC3O)cc1 (centres undefined)
LOX IMVI melanoma
  GI50: 18 µM
  TGI: 40 µM
CCRF-CEM leukemia
  GI50: 6.73 µM
  TGI: 78.5 µM
HCT-116 colon
  GI50: 25.6 µM
  TGI: 59.4 µM
SK-MEL-28 melanoma
  GI50: 22.2 µM
  TGI: 57.9 µM
NCI-H23 lung
  GI50: 27.7 µM
  TGI: 55.3 µM
HOP-92 NSCLC
  GI50: 23.4 µM
  TGI: 51.9 µM
NCI-H226 lung
  GI50: 30 µM
  TGI: 75 µM
SF-539 CNS
  GI50: 19.3 µM
  TGI: 33.8 µM
UACC-257 melanoma
  GI50: 22.3 µM
  TGI: 43.8 µM
PC-3 prostate
  GI50: 28 µM
  TGI: 76.5 µM
